Key:
5‐lipoxygenase (5‐LOX) [1] = target: T1, 5‐lipoxygenase (5‐LOX) (Homo sapiens, UniProt P09917); test: Differential scanning fluorimetry (DSF) screen on 5-LOX; type: binding; conditions: 500 μM fragment, mean of duplicates
T1 construct: made in house; host or cells: E. coli BL21 (DE3)
T1 sequence (P09917 1-674): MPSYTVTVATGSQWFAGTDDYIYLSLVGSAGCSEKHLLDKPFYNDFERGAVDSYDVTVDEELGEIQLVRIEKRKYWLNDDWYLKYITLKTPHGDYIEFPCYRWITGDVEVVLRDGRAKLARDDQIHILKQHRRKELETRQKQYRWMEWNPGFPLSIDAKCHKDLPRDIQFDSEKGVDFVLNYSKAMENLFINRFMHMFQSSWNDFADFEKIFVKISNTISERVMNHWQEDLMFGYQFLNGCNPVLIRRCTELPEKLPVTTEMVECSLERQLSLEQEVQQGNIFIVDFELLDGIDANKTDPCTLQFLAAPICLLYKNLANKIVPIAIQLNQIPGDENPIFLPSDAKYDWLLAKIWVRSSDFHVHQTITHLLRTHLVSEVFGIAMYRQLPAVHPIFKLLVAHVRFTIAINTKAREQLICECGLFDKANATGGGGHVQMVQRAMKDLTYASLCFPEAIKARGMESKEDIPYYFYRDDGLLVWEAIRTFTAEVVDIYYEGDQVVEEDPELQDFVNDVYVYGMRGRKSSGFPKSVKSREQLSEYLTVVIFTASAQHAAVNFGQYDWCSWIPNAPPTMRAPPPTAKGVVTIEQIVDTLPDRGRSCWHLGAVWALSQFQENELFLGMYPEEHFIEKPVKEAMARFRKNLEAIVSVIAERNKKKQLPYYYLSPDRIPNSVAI
Excerpt: For the primary screen of this fragment library, we employed differential scanning fluorimetry (DSF, also known as thermal shift). DSF is generally applicable to a large panel of protein targets and provides a robust, low‐cost screening technology for fragment‐based approaches. ^[20] All five proteins of our interest are soluble and were recombinantly expressed in Escherichia coli. We performed an initial fragment screen on all five targets by DSF. The use of a uniform screening method for all targets ensured consistent data and provided the opportunity to identify false positive hits which interfered with the screening technology. The conditions of the DSF assay were optimized for the desired screening and validated with reference compounds (Table S1 in the Supporting Information). Compounds causing a positive thermal shift ΔT m≥1.0 °C were considered as active.
DSF measurement of the PDFL (single concentration of 500 μM, duplicates, 96‐well format) on the five proteins retrieved 19 fragment hits on sEH, 28 on LTA4H, 12 on 5‐LOX, 16 on RXRα, and 14 on FXR, respectively. Melting point distributions of the screening library for all five targets are depicted in Figure 2. Amongst the hits, three compounds (Table S2) gave a positive signal on all five proteins likely qualifying them as pan assay interference compounds (PAINS). ^[21] Fragments binding to multiple targets (Scheme 1) were identified for seven out of ten target combinations (Figure 2, Table 1). Among them, fragments 4, 6, 7, and 9 match previously identified privileged scaffolds for fatty acid mimetics. ^[14] […] Active ligands containing N‐phenylbenzamide 6 and the N‐phenylbenzylamine 7 have been described for four of the protein targets. Furthermore, indole, which has been characterized as a privileged heterocycle for fatty acid mimetics, ^[14] is present in fragments 5 and 10. Dual 5‐LOX/RXR ligand 1 was present in 5‐LOX inhibitors, while dual FXR/LTA4H modulator 3 is found among known FXR ligands. Fragments 2 (sEH/5‐LOX) and 8 (LTA4H/RXR) are novel scaffolds not appearing in known ligands of any of the five targets.
Figure S3: SDS page of the purified proteins (proteins RXRα and FXR after TEV cleavage) using a 14% polyacrylamide gel, which was stained with coomassi. Precision Plus Protein™ Unstained Protein Standard s (Bio-Rad Laboratories, Inc. ) was used […]
All experiments were performed as duplicates using MicroAmp fast 96 -well plates. Each plate contained 80 different compound wells and 16 DMSO control wells. First 0.8 µl of a 25 mM Preswick Library Fragment dilution in DMSO or pure DMSO were placed in each of the well (final concentration 500 µM). Then 39.2 µl of the master mi x (containing protein, Triton x -100, SYPRO® Orange Protein Gel Stain and buffer that corresponds to the tested protein) were added.
Table S4: Final concentrations in DSF experiments: […]
5-LOX 500 µM compound, 3.5 µM protein, 0.87x DPBS, 0.87 mM EDTA, 0.01% (W/V) Triton X-100, 2.1% DMSO and 5x SYPRO® with a pH = 7.5 […]
The measurements were performed using a iCycler iQ™ Single -Color Real Time PCR device with a heat rate of 1 °C per min, an excitation wavelength of 490 nm and an emission wavelength of 570 nm. The first derivation calculated by MyiQ Op tical Software 1.0 was analyzed using Microsoft Office Excel 2013 by comparing the maxima. A shift of 1 °C (in case of 5 -LOX 0.9°C) or more compared to the DMSO control were assumed as potentially binding of the fragment.
(1 picture or pasted object on this page, not shown here)

5‐lipoxygenase (5‐LOX) [2] = target: T1, 5‐lipoxygenase (5‐LOX); test: 5-LOX activity assay (HPLC detection of product formation); type: biochemical; conditions: for 5‐LOX LE: ligand efficiency calculated from IC50; for IC50: mean±standard deviation of three independent experiments
Description: For hit validation, we employed secondary assays with orthogonal readouts to confirm fragment activities. Biochemical activity assays were chosen for the enzymes sEH, LTA4H, and 5‐LOX. […] RXRα and FXR modulation was assessed in cell‐based hybrid reporter gene assays. All ten compounds were tested at a single concentration of 500 μM in the sEH and LTA4H activity assays and with a concentration of 100 μM on 5‐LOX, RXRα, and FXR. Fragments showing an inhibition greater than 50 % (sEH‐H and LTA4H) or greater than 70 % (5‐LOX) as well as the hits determined in the DSF experiments were further characterized in full concentration‐response curves between 0.1 and 1000 μM. […] As alternative cell‐free assay we employed isothermal titration calorimetry (ITC) to determine binding affinity of the fragments towards the LBDs of both nuclear receptors. ITC was performed with a protein concentration of 50 μM and compound concentrations of 250 μM.
The 10 fragments showing dual activity in the DSF experiments were validated by functional assay screening with a fixed concentration of 500 µM in case of sEH-H and LTA4H, 100 µM in case of 5-LOX and 30 µM, 10 µM and 5 µM in case of FXR and […]
% (5-LOX) as well as the hits determined in the DSF experiments were further measured with concentrations between 1000 µM and 0.1 µM (sEH-H and LTA4H) and between 300 µM and 1 µM (5-LOX). The sEH and LTA4H activity assays were performed as triplicate and repeated 3 times. The 5-LOX activity assay was performed with one point per concentration and repeated 3 times Raw data was first analyzed in Microsoft Office Excel (2013), before IC50 curves were plotted and further analyzed using GraphPad Prism 7 and GraphPad Prism 8 for the shown graphs .
The eight approved drugs were measured in the orthogonal assay systems analogous to the fragments. […]
For the 5-LOX they […]
were measured as single point measurement in three different experiments with concentrations between 300 µM and 1 µM. For […]
Raw data was processed according to the fragments. […]

With `CCCCOc1cc(C(=O)OC)ccc1N` [Compound 3] the “DSF/ΔT m 5‐LOX” value (5‐lipoxygenase (5‐LOX) [1]) was −1.1±0.0 °C.

In the case of `Clc1ccc2c(c1)Nc1ccccc1CC2` [Compound 8], the “DSF/ΔT m 5‐LOX” value (5‐lipoxygenase (5‐LOX) [1]) is reported as −0.1±0.0 °C, the “5‐LOX LE” value (5‐lipoxygenase (5‐LOX) [2]) is reported as 0.44 kcal/mol and the IC50 (5‐lipoxygenase (5‐LOX) [2]) is reported as 6.5 ± 2.2 µM.

With `Oc1ccc(-c2ccc(F)cc2F)cc1` [Compound 9] the “DSF/ΔT m 5‐LOX” value (5‐lipoxygenase (5‐LOX) [1]) was −1.1±0.0 °C, the “5‐LOX LE” value (5‐lipoxygenase (5‐LOX) [2]) was 0.38 kcal/mol and the IC50 (5‐lipoxygenase (5‐LOX) [2]) was 64.6 ± 26.4 µM.

`Fc1ccc(-c2c[nH]c3ccccc23)cc1` [Compound 10] was tested, and the “DSF/ΔT m 5‐LOX” value (5‐lipoxygenase (5‐LOX) [1]) was 0.9±0.0 °C, the “5‐LOX LE” value (5‐lipoxygenase (5‐LOX) [2]) was 0.36 kcal/mol and the IC50 (5‐lipoxygenase (5‐LOX) [2]) was 54.3 ± 19.7 µM.

In the case of `Oc1ccc(Cc2ccccc2)cc1` [Compound 4], the “DSF/ΔT m 5‐LOX” value (5‐lipoxygenase (5‐LOX) [1]) is reported as −1.1±0.0 °C.

In the case of `Cc1cc(=O)n(-c2ccc(C)c(C)c2)[nH]1` [Compound 2], the “DSF/ΔT m 5‐LOX” value (5‐lipoxygenase (5‐LOX) [1]) is reported as 1.1±0.0 °C, the “5‐LOX LE” value (5‐lipoxygenase (5‐LOX) [2]) is reported as 0.42 kcal/mol and the IC50 (5‐lipoxygenase (5‐LOX) [2]) is reported as 21.2 ± 7.3 µM.

With `Oc1ccc2cc[nH]c2c1` [Compound 5] the “DSF/ΔT m 5‐LOX” value (5‐lipoxygenase (5‐LOX) [1]) was −0.1±0.0 °C, the “5‐LOX LE” value (5‐lipoxygenase (5‐LOX) [2]) was 0.64 kcal/mol and the IC50 (5‐lipoxygenase (5‐LOX) [2]) was 19.9 ± 2.4 µM.

In the case of `c1ccc(N2CCNCC2)nc1` [Compound 1], the “DSF/ΔT m 5‐LOX” value (5‐lipoxygenase (5‐LOX) [1]) is reported as 0.9±0.0 °C.

`Cc1ccccc1C(=O)Nc1ccccc1` [Compound 6] was tested, and the “DSF/ΔT m 5‐LOX” value (5‐lipoxygenase (5‐LOX) [1]) was −1.4±2.1 °C.

`CCN(Cc1ccccc1)c1ccccc1` [Compound 7] was tested, and the “DSF/ΔT m 5‐LOX” value (5‐lipoxygenase (5‐LOX) [1]) was 0.9±0.0 °C and the IC50 (5‐lipoxygenase (5‐LOX) [2]) was 118 ± 45.1 µM.
